Earlier results in patent US7851464B2, “Spirolactam aryl CGRP receptor antagonists” (Merck Sharp & Dohme Corp., priority 2005, dated 2010).
Ends that are not written are not given here.

Columns and labels:
marmoset = conditions: Doods et al. 2000
rat = conditions: Escott et al. 1995
rats = conditions: prior administration, Williamson et al. 1997

Compound | effect on increase of facial blood flow (marmoset) | effect on increase of facial blood flow (rat) | effect on increase of middle meningeal artery diameter (rats)
NCCCC[C@H](NC(=O)[C@@H](Cc1cc(Br)c(O)c(Br)c1)NC(=O)N1CCC(N2Cc3ccccc3NC2=O)CC1)C(=O)N1CCN(c2ccncc2)CC1 [BIBN4096BS] | blocked | – | –
CGRP(8-37): a peptide CGRP antagonist; fragment of CGRP that lacks seven N-terminal amino acid residues (VTHRLAGLLSRSGGVVKNNFVPTNVGSKAF; ends and bridges not checked; UniProt P06881 90-119, looked up, fragment) | – | inhibited | blocked
